This note sets out measurements from EP4729529A1, “PREPARATION OF PEPTIDE INHIBITOR OF INTERLEUKIN-23 RECEPTOR AND USE THEREOF” (Xizang Haisco Pharmaceutical Co., Ltd., priority 2023, dated 2024).

The nature of data set [1]: Pharmacokinetic test in mice (intravenous and intragastric, plasma LC-MS/MS). It is filed as in vivo. Conditions: male, mouse, Balb/c mice. As for the experimental part: 4. Pharmacokinetic test in mice
4.1. Experimental animals: Male Balb/c mice (20-25 g, 18 mice/compound) were purchased from Chengdu Dossy Experimental Animals Co., Ltd.
4.2. Experimental design: On the day of the experiment, the Balb/c mice were randomly grouped by body weight. The animals were fasted with water available for 12-14 h one day before the administration, and were fed 4 h after the administration. Table 4. Administration information
Before and after administration, 0.06 mL of blood was taken from the orbit under isoflurane anaesthesia, and placed in an EDTAK2 centrifuge tube. The tube was centrifuged at 5000 rpm at 4°C for 10 min, and plasma was collected. The blood collection time points for the intravenous group and intragastric group were both 0 min, 5 min, 15 min, 30 min, 1 h, 2 h, 4 h, 6 h, 8 h, and 24 h. Before analysis and detection, all samples were stored at -80°C, and the samples were quantitatively analysed by LC-MS/MS. Table 5. Pharmacokinetic parameters of test compounds in mouse plasma

The target of another data set is T1, IL-23α/IL-12β and IL-23R (Homo sapiens, UniProt Q5VWK5).
T1 construct: purchased ACRO ILR-H82F3 (IL-23R); ILB-H52W5 (IL-23α/IL-12β)
T1 sequence (Q5VWK5 24-353 limits assumed): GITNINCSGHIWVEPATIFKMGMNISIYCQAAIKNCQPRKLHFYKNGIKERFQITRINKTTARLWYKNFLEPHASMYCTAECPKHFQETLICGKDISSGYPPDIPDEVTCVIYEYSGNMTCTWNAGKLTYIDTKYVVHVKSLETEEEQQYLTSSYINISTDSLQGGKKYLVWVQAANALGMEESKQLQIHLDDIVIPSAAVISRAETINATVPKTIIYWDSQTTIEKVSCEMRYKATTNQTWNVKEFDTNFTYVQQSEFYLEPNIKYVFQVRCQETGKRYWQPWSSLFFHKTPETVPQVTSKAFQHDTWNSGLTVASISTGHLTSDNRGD
In words: IL-23α/IL-12β and IL-23R binding assay (TR-FRET/HTRF). Conditions: inhibition of the binding of IL-23α/IL-12β to IL-23R, TR-FRET; both proteins 0.3 nM. A digest of the protocol: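 TR-FRET with IL-23α/IL-12β and IL-23R each at 0.3 nM in PPI buffer; compound preincubated with IL-23α/IL-12β 60 min at 25°C, then IL-23R and Tb/d2 detection reagents added for 60 min. HTRF 665/620 ratio; IC50 by nonlinear regression.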
Background: TR-FRET usually uses a lanthanide donor and a delayed reading to cut background.

In the next data set the target is T2, IL-23R (Homo sapiens, UniProt Q5VWK5).
T2 construct: host or cells: HEK-blue IL23 reporter gene cell line
T2 sequence (Q5VWK5 24-629): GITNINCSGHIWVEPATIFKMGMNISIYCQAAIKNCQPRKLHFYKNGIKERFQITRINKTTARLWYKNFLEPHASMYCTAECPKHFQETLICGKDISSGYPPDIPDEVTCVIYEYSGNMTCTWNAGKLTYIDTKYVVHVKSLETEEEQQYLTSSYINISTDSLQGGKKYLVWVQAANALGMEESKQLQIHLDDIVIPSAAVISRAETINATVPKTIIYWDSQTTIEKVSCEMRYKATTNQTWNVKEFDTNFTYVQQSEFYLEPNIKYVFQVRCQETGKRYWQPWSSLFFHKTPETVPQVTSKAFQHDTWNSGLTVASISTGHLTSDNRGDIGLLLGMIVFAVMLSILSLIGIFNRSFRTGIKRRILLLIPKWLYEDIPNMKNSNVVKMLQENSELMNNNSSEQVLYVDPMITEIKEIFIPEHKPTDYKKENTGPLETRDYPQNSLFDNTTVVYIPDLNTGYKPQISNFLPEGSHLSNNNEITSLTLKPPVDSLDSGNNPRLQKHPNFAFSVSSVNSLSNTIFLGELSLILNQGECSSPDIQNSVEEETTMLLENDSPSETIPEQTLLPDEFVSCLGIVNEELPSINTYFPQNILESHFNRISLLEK
In words: IL-23R reporter gene assay (HEK-blue IL23 reporter gene cell line, rhIL23 stimulation). It is filed as cell-based. Conditions: Inhibition of IL-23R, rhIL23 1 ng/mL, 24 hours. As for the experimental part: 2. IL-23R reporter gene assay
The purpose of this assay was to assess the ability of compounds to inhibit the binding of IL23p19 to IL23R in a reporter gene system. The HEK-blue IL23 reporter gene cell line (Invivogen, hkb-il23) was cultured in DMEM + 10% FBS + 100 ug/mL Normocin medium. When the cell density reached 80%-90%, 5000 cells/well were plated into a 384-well plate, and the plate was incubated overnight at 37°C with 5% CO2. Then, the compound stock solution was diluted in DMSO, and 40 nL of the dilution was transferred into the 384-well culture plate by Echo. The plate was incubated at 37°C with 5% CO2 for 0.5 hours. 40 nL/well of rhIL23 (R&D, 1290-IL) was added to the 384-well cell culture plate at a final concentration of 1 ng/mL, and the plate was incubated at 37°C with 5% CO2 for 24 hours. 18 µL of Quanti-Blue™ solution was added to a new 384-well plate. 2 µL/well of cell culture supernatant was transferred into the 384-well plate prepared in Step 6, and the plate was incubated at 37°C with 5% CO2 for 1 hour. Absorbance values at […] were read on BMG. The binding ability of the compounds was assessed using the following formula, and IC50 values were obtained by fitting with Graphpad.
(§1) Calculation formula of inhibition rate: [formula] • where Data negative: mean of DMSO control group; and • Data positive: mean of non-IL23-stimulated group
The calculation formula of IC50 was as follows: Y = Bottom + (Top−Bottom)/(1+10^(∧)((LogIC50−X)*HillSlope)) [formula] • where X: concentration of compound; and • Y: inhibition rate of compound Table 2. Inhibition of IL-23R by test compounds
In general terms: Reporter assays use an easily measured gene product as a stand-in for the process of interest.

Data set [2] concerns the target (Homo sapiens, UniProt Q5VWK5). Description: IL-23-stimulated pSTAT3 detection assay in PBMCs (ELISA). It counts as cell-based. As to conditions: rhIL23 stimulation 30 minutes, read-out: pSTAT3 inhibition/IC50. As for the experimental part:
3. IL-23-stimulated pSTAT3 detection assay in PBMCs
Cryopreserved human PBMCs were thawed, and seeded onto a plate previously covered with an anti-CD3 antibody at 1 × 10^6 cells/well. Then, an anti-CD28 antibody was added to the plate, and the cells were incubated at 37°C with 5% CO2 for 5 days. On Day 5, the cells were seeded onto a 96-well plate at a density of 100K cells/well after 4 hours of stimulation by FBS starvation. The diluted Compound was transferred into the 96-well cell culture plate, and the plate was incubated at 37°C with 5% CO2 for 1 hour. rhIL23 (R&D, 1290-IL) was added to the cell culture plate, and the plate was incubated at 37°C with 5% CO2 for 30 minutes. The cells in the wells were lysed on ice with a lysis buffer containing 1× PHOSstop solution for 30 minutes, and the plate was centrifuged at 1000 rpm for 1 minute. Then, the supernatant was transferred into a 96-well ELISA plate, and pSTAT3 ELISA assay was performed according to the instructions of the kit (CST, 7300CA). Absorbance values at […] were read on PHERAstar FSX (BMG LRBTECH). The inhibition rate of the compounds was assessed using the following formula, and IC50 values were obtained by fitting with Graphpad.
as §1
The calculation formula of IC50 was as follows: Y = Bottom + (Top−Bottom)/(1+10^(∧)((LogIC50−X)*HillSlope)) [formula] • where X: concentration of compound; and • Y: inhibition rate of compound. Table 3. pSTAT3 inhibition

Positions of bridges follow the written chain, without caps; N, C: chain ends. Non-standard residues stand in square brackets, D forms with d. Residues, ends and D or L forms follow the SMILES beside them. Phe(4-OC2H4NH2,2,3-(CH2)3) = NCCOc1ccc(C[C@H](N)C(=O)O)c2c1CCC2; Trp(7-cPr) = N[C@@H](Cc1c[nH]c2c(C3CC3)cccc12)C(=O)O; 2Nal = N[C@@H](Cc1ccc2ccccc2c1)C(=O)O; Thp(SO2) = NC1(C(=O)O)CCS(=O)(=O)CC1; 3Pal = N[C@@H](Cc1cccnc1)C(=O)O; Pen = CC(C)(S)[C@H](N)C(=O)O; Sar = CNCC(=O)O

(Homo sapiens, UniProt Q5VWK5), sequence (Q9NPF7 20-189 partner, other chains not shown): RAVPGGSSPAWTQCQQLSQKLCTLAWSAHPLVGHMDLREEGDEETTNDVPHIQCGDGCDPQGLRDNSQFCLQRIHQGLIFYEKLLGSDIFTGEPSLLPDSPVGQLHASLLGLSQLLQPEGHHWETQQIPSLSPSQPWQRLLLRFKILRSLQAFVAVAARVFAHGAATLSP
(Homo sapiens, UniProt Q5VWK5), sequence (P29460 23-328 partner, other chains not shown): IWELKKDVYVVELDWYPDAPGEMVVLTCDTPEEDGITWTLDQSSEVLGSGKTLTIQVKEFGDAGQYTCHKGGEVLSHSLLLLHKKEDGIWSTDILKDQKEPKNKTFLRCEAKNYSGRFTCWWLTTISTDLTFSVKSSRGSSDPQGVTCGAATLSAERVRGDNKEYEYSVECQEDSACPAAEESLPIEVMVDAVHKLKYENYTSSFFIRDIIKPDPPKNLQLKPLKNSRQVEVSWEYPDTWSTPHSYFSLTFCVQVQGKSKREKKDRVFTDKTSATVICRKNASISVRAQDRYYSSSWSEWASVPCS

On to `CC(=O)N[C@@H]1C(=O)N[C@@H](Cc2c[nH]cn2)C(=O)N[C@@H]([C@@H](C)O)C(=O)N[C@@H](Cc2c[nH]c3c(C4CC4)cccc23)C(=O)N[C@@H](CCC(N)=O)C(=O)N[C@H](C(=O)N[C@@H](Cc2ccc(OCCN)c3c2CCC3)C(=O)N[C@@H](Cc2ccc3ccccc3c2)C(=O)NC2(C(=O)N[C@@H](CCC(=O)O)C(=O)N[C@@H](CC(N)=O)C(=O)N[C@@H](Cc3cccnc3)C(=O)N(C)CC(N)=O)CCS(=O)(=O)CC2)C(C)(C)SSC1(C)C` [Compound 16] (Ac-[Pen]HT[Trp(7-cPr)]Q[Pen][Phe(4-OC2H4NH2,2,3-(CH2)3)][2Nal][Thp(SO2)]EN[3Pal][Sar]-NH2; disulfide 1-6), for which the AUC(0-t) is 5440 ± 220 ng·h/mL in data set [1] (iv, i.v. (1 mg/kg)) and 143 ± 13 ng·h/mL in data set [1] (po, i.g. (10 mg/kg)). This compound also returned a clearance in data set [1] (iv, i.v. (1 mg/kg)) of 3.06 ± 0.13 mL/min/kg. For the same compound, in data set [1] (iv, i.v. (1 mg/kg), read-out: Vdss), the Vd is 0.378 ± 0.022 L/kg. Further, in data set [1] (po, i.g. (10 mg/kg)), the bioavailability is 0.263 ± 0.023%. Moreover, the IC50 at IL-23α/IL-12β and IL-23R was determined as 0.063 nM; on IL-23R it was 6.07 nM; in data set [2] it was 0.0069 nM.

For orientation: AUC(0-t) means exposure summed from dosing to a finite time, without extrapolation to infinity. High values mean more exposure, low ones less exposure. Usually clearance stands for the volume of plasma or blood freed of the substance per unit of time. Lower therefore signals a low capacity for elimination. A word on the bioavailability: it is dose-corrected exposure relative to a reference, in per cent. Low readings indicate little systemic uptake, high ones much systemic uptake.
